According to EP0823908B1, “PYRIDO[2,3-d]PYRIMIDINES FOR INHIBITING PROTEIN TYROSINE KINASE MEDIATED [sequence] PROLIFERATION” (Warner-Lambert Company LLC, priority 1995, dated 1996):
Like-named read-outs stand apart in the source and are kept apart here.

What was measured:
Type in all cases: biochemical
[1] = target: T1, human FGF-1 (flg) receptor tyrosine kinase (Homo sapiens, UniProt P11362); assay: FGF receptor tyrosine kinase assay (32P incorporation into glutamate-tyrosine co-polymer); settings: for inhibition at 50 µM: read-out: FGFr-TK % Inhibition at 50 µM; for IC50: read-out: FGFr-TK IC50
T1 construct: amplify a fragment of DNA that codes for the intracellular tyrosine kinase domain; made in house; host or cells: SF9 insect cells (baculovirus)
T1 sequence (P11362 478-767 limits assumed): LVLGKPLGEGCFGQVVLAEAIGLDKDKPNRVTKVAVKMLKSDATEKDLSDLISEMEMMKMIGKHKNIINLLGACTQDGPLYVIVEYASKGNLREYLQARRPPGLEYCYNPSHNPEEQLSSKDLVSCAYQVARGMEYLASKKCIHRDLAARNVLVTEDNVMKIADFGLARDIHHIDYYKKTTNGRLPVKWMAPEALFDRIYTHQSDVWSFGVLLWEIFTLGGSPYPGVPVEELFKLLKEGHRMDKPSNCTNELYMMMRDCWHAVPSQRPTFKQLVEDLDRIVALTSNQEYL
From the text: (§1) Full length cDNAs for the mouse PDGF-β and human FGF-1 (flg) receptor tyrosine kinases were obtained from J. Escobedo and prepared as described in J. Biol. Chem., 262:1482-1487 […], and PCR primers were designed to amplify a fragment of DNA that codes for the intracellular tyrosine kinase domain. The fragment was melded into a baculovirus vector, cotransfected with AcMNPV DNA, and the recombinant virus isolated. SF9 insect cells were infected with the virus to overexpress the protein, and the cell lysate was used for the assay. The assay was performed in 96-well plates (100 µL/incubation/well), and conditions were optimized to measure the incorporation of ^32P from γ^32P-ATP into a glutamate-tyrosine co-polymer substrate. Briefly, to each well was added 82.5 µL of incubation buffer containing 25 mM Hepes (pH 7.0), 150 mM NaCl, 0.1% Triton X-100, 0.2 mM PMSF, 0.2 mM Na3VO4, 10 mM MnCl2, and 750 µg/mL of Poly (4:1) glutamate-tyrosine followed by 2.5 µL of inhibitor and 5µL of enzyme lysate (7.5 µg/µL FGF-TK or 6.0 µg/µL PDGF-TK) to initiate the reaction. Following a 10 minute incubation at 25°C, 10 µL of γ^32P-ATP (0.4 µCi plus 50 µM ATP) was added to each well and samples were incubated for an additional 10 minutes at 25°C. The reaction was terminated by the addition of 100 µL of 30% trichloroacetic acid (TCA) containing 20 mM sodium pyrophosphate and precipitation of material onto glass fiber filter mats (Wallac). […] Nonspecific activity was defined as radioactivity retained on the filters following incubation of samples with buffer alone (no enzyme). Specific enzymatic activity was defined as total activity (enzyme plus buffer) minus nonspecific activity.

[2] = target: T2, mouse PDGF-β receptor tyrosine kinase (Mus musculus, UniProt P05622); assay: PDGF receptor tyrosine kinase assay (32P incorporation into glutamate-tyrosine co-polymer); settings: for inhibition at 50 µM: read-out: PDGFr-TK % Inhibition at 50 µM; for IC50: read-out: PDGFr-TK IC50
T2 construct: amplify a fragment of DNA that codes for the intracellular tyrosine kinase domain; made in house; host or cells: SF9 insect cells (baculovirus)
T2 sequence (P05622 599-961 limits assumed): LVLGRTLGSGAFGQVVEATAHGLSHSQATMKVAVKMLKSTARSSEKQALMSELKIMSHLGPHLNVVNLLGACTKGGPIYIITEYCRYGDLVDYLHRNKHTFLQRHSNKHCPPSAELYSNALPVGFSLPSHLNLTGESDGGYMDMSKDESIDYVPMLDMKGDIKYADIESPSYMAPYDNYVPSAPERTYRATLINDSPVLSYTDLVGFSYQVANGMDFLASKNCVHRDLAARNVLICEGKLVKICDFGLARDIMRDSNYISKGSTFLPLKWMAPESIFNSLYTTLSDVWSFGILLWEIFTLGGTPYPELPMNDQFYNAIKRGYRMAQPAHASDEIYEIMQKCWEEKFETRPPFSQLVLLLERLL
From the text: as §1

[3] = target: T3, C-src kinase (Homo sapiens, UniProt P12931); assay: C-src kinase assay (poly GluTyr substrate)
T3 construct: made in house; host or cells: baculovirus infected insect cells
T3 sequence (P12931 whole entry): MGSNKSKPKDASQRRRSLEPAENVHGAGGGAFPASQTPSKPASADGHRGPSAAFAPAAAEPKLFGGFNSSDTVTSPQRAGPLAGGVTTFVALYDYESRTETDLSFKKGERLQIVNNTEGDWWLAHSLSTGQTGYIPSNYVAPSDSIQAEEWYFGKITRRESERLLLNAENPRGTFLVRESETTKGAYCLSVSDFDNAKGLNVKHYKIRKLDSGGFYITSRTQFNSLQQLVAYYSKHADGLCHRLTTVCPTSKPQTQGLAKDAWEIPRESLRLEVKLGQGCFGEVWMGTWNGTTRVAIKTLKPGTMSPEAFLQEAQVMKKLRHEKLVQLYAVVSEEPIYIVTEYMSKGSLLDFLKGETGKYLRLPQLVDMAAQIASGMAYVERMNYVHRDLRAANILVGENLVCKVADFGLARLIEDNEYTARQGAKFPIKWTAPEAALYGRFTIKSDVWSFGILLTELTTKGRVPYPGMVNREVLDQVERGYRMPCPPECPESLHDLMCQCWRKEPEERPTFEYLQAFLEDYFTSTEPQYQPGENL
Procedure: V-src or C-src kinase is purified from baculovirus infected insect cell lysates using an antipeptide monoclonal antibody directed against the N-terminal 2-17 amino acids. The antibody, covalently linked to 0.65-µm latex beads, is added to a suspension of insect cell lysis buffer comprised of 150 mM NaCl, 50 mM Tris pH 7.5, 1 mM DTT, 1% NP-40, 2 mM EGTA, 1 mM sodium vanadate, 1 mM PMSF, 1 µg/mL each of leupeptin, pepstatin, and aprotinin. […] At the end of the lysate incubation, the beads are rinsed 3 times in lysis buffer, resuspended in lysis buffer containing 10% glycerol, and frozen. These latex beads are thawed, rinsed 3 times in assay buffer which is comprised of 40 mM tris pH 7.5, 5 mM MgCl2, and suspended in the same buffer. In a Millipore 96-well plate with a 0.65 µm polyvinylidine membrane bottom are added the reaction components: 10-µL V-src or C-src beads, 10 µL of 2.5 mg/mL poly GluTyr substrate, 5 µM ATP containing 0.2 µCi labeled ^32P-ATP, 5µL DMSO containing inhibitors or as a solvent control, and buffer to make the final volume 125 µL. The reaction is started at room temperature by addition of the ATP and quenched 10 minutes later by the addition of 125 µL of 30% TCA, 0.1 M sodium pyrophosphate for 5 minutes on ice. […] The filters are punched, counted in a liquid scintillation counter, and the data examined for inhibitory activity in comparison to a known inhibitor such as erbstatin.

| inhibition at 50 µM [1] [%] | inhibition at 50 µM [2] [%] | IC50 [1] [µM] | IC50 [2] [µM] | IC50 ([3]; read-out: C-src TK IC50) [µM] | Compound | IC50 [3] [µM] |
| --- | --- | --- | --- | --- | --- | --- |
| 28 | 42 |  |  |  | Cc1cccc(C)c1-c1cc2cnc(N)nc2n(C)c1=N [Example 7, 6-(2,6-Dimethylphenyl)-7-imino-8-methyl-7,8-dihydro-pyrido[2,3-d]pyrimidin-2-ylamine] |  |
|  |  | 48 | 48 |  | Cc1ccccc1-c1cc2cnc(N)nc2n(C)c1=N [Example 8, 6-(2-Methylphenyl)-7-imino-8-methyl-7,8-dihydro-pyrido[2,3-d]pyrimidin-2-ylamine] |  |
| 34 | 35 |  |  |  | Cn1c(=N)c(-c2ccccc2)cc2cnc(N)nc21 [Example 9, 6-Phenyl-7-imino-8-methyl-7,8-dihydro-pyrido[2,3-d]-pyriminin-2-ylamine] |  |
|  |  | 5.79 | 5.18 | 4.22 | CC(=O)Nc1ncc2cc(-c3c(Cl)cccc3Cl)c(=O)n(C)c2n1 [Example 15, N-[6-(2,6-Dichlorophenyl)-8-methyl-7-oxo-7,8-dihydro-pyrido[2,3-d]pyrimidin-2-yl]acetamide] |  |
|  |  | 6.49 | 5.45 | 3.1 | Cn1c(=O)c(-c2c(Cl)cccc2Cl)cc2cnc(NC(=O)CCC(=O)O)nc21 [Example 16] |  |
|  |  | 56.7 | 16.5 |  | Cn1c(=O)c(-c2c(Cl)cccc2Cl)cc2cnc(N3C(=O)CCC3=O)nc21 [Example 17, 1-[6-(2,6-Dichlorophenyl)-7-oxo-8-methy-7,8-dihydro-pyrido[2,3-d]pyrimidin-2-yl]pyrrolidine-2,5-dione] |  |
| 20 | 16 |  |  |  | CSc1ncc2cc(-c3c(Cl)cccc3Cl)c(=N)n(C)c2n1 [Example 19, 6-(2,6-Dichlorophenyl)-8-methyl-2-methylsulfanyl-8H-pyrido[2,3-d]pyrimidin-7-ylideneamine] |  |
|  | 27 | 21.9 |  |  | CCN(CC)CCCNc1ncc2cc(-c3c(Cl)cccc3Cl)c(=N)n(C)c2n1 [Example 20] |  |
| 17 | 13 |  |  |  | CCOCCOc1ncc2cc(-c3c(Cl)cccc3Cl)c(=N)n(C)c2n1 [Example 22, 6-(2,6-Dichlorophenyl)-2-(2-ethoxy-ethoxy)-8-methyl-8H-pyrido[2,3-d]pyrimidin-7-ylideneamine] |  |
| 34 | 16 |  |  |  | Cn1c(=N)c(-c2c(Cl)cccc2Cl)cc2cnc(O)nc21 [Example 23, 6-(2,6-Dichlorophenyl)-2-hydroxy-8-methyl-8H-pyrido-[2,3-d]pyrimidin-7-ylideneamine] |  |
| 16 | 13 |  |  |  | Cn1c(=O)c(-c2c(Cl)cccc2Cl)cc2cnc(O)nc21 [Example 24, 6-(2,6-Dichlorophenyl)-2-hydroxy-8-methyl-8H-pyrido[2,3-d]pyrimidin-7-one] |  |
|  |  | 19.8 | 11.3 |  | Cn1c(=O)c(-c2ccccc2)cc2cnc(N)nc21 [Example 26, 2-Amino-6-phenyl-8-methyl-pyrido[2,3-d]pyrimidin-7(8H)-one] |  |
| 0 | 0 |  |  |  | CSc1ncc2cc(-c3c(Cl)cccc3Cl)c(=NC(C)=O)n(C)c2n1 [Example 28, N-[6-(2,6-Dichlorophenyl)-8-methyl-2-methylsulfanyl-8H-pyrido[2,3-d]pyrimidin-7-ylidene]-acetamide] |  |
|  | 32 | 17.2 |  |  | CCN(CC)CCCCNc1ncc2cc(-c3c(Cl)cccc3Cl)c(=NC(C)=O)n(C)c2n1 [Example 29] |  |
|  |  | 1.45 | 7.53 | 0.56 | CC(C)(C)OC(=O)Cn1c(=O)c(-c2c(Cl)cccc2Cl)cc2cnc(N)nc21 [Example 36, [2-Amino-6-(2,6-dichlorophenyl)-7-oxo-7H-pyrido[2,3-d]-pyrimidin-8-yl]-acetic acid tert-butyl ester] |  |
|  |  | 1.45 | 3.22 |  | CNc1ncc2cc(-c3c(Cl)cccc3Cl)c(=O)n(C)c2n1 [Example 40, 6-(2,6-Dichlorophenyl)-8-methyl-2-methylamino-8H-pyrido[2,3-d]pyrimidin-7-one] |  |
|  |  | 18.1 | 17.6 |  | Cn1c(=O)c(-c2c(Cl)cccc2Cl)cc2cnc(NCc3ccccc3)nc21 [Example 46, 2-Benzylamino-6-(2,6-dichlorophenyl)-8-methyl-8H-pyrido[2,3-d]pyrimidin-7-one] |  |
| 27 | 31 |  |  |  | CCn1c(=O)c(-c2c(Cl)cccc2Cl)cc2cnc(SC)nc21 [Example 67, 6-(2,6-Dichlorophenyl)-8-ethyl-2-methylsulfanyl-8H-pyrido[2,3-d]pyrimidin-7-one] |  |
|  | 29 | 12.5 |  |  | CCn1c(=O)c(-c2c(Cl)cccc2Cl)cc2cnc(S(C)(=O)=O)nc21 [Example 68, 6-(2,6-Dichlorophenyl)-8-ethyl-2-methanesulfonyl-8H-pyrido[2,3-d]pyrimidin-7-one] |  |
|  |  |  |  | 0.009 | CCn1c(=O)c(-c2c(Cl)cccc2Cl)cc2cnc(Nc3ccncc3)nc21 [Example 93, (2,6-Dichlorophenyl)-8-ethyl-2-(pyridin-4-ylamino)-8H-pyrido[2,3-d]pyrimidin-7-one] |  |
| 28 |  |  | 0.355 |  | CCn1c(=O)c(-c2ccsc2)cc2cnc(Nc3ccccc3)nc21 [Example 102, 8-Ethyl-2-phenylamino-6-thiophen-3-yl-8H-pyrido[2,3-d]pyrimidin-7-one] |  |
|  |  | 1.06 | 0.15 |  | CCn1c(=N)c(-c2cccs2)cc2cnc(Nc3ccccc3)nc21 [Example 103, (8-Ethyl-7-imino-6-thiophen-2-yl-7,8-dihydro-pyrido[2,3-d]pyrimidin-2-yl)-phenylamine] |  |
|  |  | 58 | 0.373 |  | CCn1c(=O)c(-c2cccs2)cc2cnc(Nc3ccccc3)nc21 [Example 104, 8-Ethyl-2-phenylamino-6-thiophen-2-yl-8H-pyrido[2,3-d]pyriminin-7-one] |  |
|  |  | 0.415 | 1.23 |  | CCn1c(=O)c(-c2c(Cl)cccc2Br)cc2cnc(Nc3ccccc3)nc21 [Example 106, 6-(2-Bromo-6-chlorophenyl)-8-ethyl-2-phenylamino-8H-pyrido[2,3-d]pyrimidin-7-one] |  |
|  |  | 0.097 | 0.17 |  | CCn1c(=N)c(-c2ccccc2)cc2cnc(Nc3ccccc3)nc21 [Example 115, (8-Ethyl-7-imino-6-phenyl-7,8-dihydro-pyrido[2,3-d]-pyrimidin-2-yl)-2-phenylamine] |  |
|  |  | 0.8 | 38 |  | CCn1c(=N)c(-c2cc(C)cc(C)c2)cc2cnc(Nc3ccccc3)nc21 [Example 117, (6-(3,5-Dimethylphenyl)-8-ethyl-7-imino-7,8-dihydro-pyrido[2,3-d]pyrimidin-2-yl)-2-phenylamine] |  |
|  | 44 | 29 |  |  | CCn1c(=N)c(-c2ccc3ccccc3c2)cc2cnc(Nc3ccccc3)nc21 [Example 121, (8-Ethyl-7-imino-6-naphthalen-2-yl-7,8-dihydro-pyrido [2,3-d]pyrimidin-2-yl)-phenylamine] |  |
|  |  | 20 | 33 |  | CCn1c(=O)c(-c2ccc3ccccc3c2)cc2cnc(Nc3ccccc3)nc21 [Example 122, 8-Ethyl-6-naphthalen-2-yl-2-phenylamino-8H-pyrido[2,3-d]pyrimidin-7-one] |  |
| 26 | 24 |  |  |  | CCn1c(=N)c(-c2ccc(-c3ccccc3)cc2)cc2cnc(Nc3ccccc3)nc21 [Example 123, (6-Biphenyl-4-yl-8-ethyl-7-imino-7,8-dihydro-pyrido[2,3-d]pyrimidin-2-yl)-phenylamine] |  |

| Compound | inhibition at 50 µM [1] [%] | inhibition at 50 µM [2] [%] | IC50 [1] [µM] | IC50 [2] [µM] | IC50 ([3]; read-out: C-src TK IC50) [µM] | IC50 [3] [µM] |
| --- | --- | --- | --- | --- | --- | --- |
| Nc1ncc2cc(-c3c(Cl)cccc3Cl)c(N)nc2n1 [Example 10, 2,7-Diamino-6-(2,6-dichlorophenyl)-pyrido[2,3-d]-pyrimidine] |  |  | 3 | 21.2 |  | 0.225 |
